# Experimental data taken from publication PMC7312356 (International Journal of Molecular Sciences, 2020).
# Target: T1, SgGAPDH (Streptococcus gordonii, UniProt Q68AZ3)
# T1 construct: gene GAPDH
# Assay: biochemical
# T1 sequence (Q68AZ3 entry or part of it): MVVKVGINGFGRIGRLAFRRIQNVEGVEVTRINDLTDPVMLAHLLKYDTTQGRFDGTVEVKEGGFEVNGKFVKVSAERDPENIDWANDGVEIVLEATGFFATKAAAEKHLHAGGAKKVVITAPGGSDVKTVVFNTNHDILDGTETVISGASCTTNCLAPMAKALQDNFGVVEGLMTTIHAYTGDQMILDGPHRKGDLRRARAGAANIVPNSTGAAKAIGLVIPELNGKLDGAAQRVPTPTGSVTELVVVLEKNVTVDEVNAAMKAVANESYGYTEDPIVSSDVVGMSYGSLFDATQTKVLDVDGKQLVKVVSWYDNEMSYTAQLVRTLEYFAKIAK
smiles,measurement,value
C=CC1=C(C)C2=Cc3c(C=C)c(C)c4[n]3[Fe]([Cl])[n]3c(c(C)c(CCC(=O)O)c3=CC3=NC(=C4)C(C)=C3CCC(=O)O)=CC1=N2 [Fe(III)heme],Kd,1700 nM
